From publication PMC11988775, “Glycyl-tRNA Synthetase as a Target for Antiviral Drug Screening Against Influenza Virus” (International Journal of Molecular Sciences, 2025) come the findings set out here.

Like-named read-outs stand apart in the source and are kept apart here.

Data set [1] deals with A/PuertoRico/8/34 (H1N1) (PR8 virus). It is filed as cell-based, Influenza A virus.
The target in data set [2] is T1, GlyRS (Homo sapiens, UniProt P41250).
T1 construct: made in house; host or cells: E. coli BL21(DE3)
T1 sequence (P41250 37-739): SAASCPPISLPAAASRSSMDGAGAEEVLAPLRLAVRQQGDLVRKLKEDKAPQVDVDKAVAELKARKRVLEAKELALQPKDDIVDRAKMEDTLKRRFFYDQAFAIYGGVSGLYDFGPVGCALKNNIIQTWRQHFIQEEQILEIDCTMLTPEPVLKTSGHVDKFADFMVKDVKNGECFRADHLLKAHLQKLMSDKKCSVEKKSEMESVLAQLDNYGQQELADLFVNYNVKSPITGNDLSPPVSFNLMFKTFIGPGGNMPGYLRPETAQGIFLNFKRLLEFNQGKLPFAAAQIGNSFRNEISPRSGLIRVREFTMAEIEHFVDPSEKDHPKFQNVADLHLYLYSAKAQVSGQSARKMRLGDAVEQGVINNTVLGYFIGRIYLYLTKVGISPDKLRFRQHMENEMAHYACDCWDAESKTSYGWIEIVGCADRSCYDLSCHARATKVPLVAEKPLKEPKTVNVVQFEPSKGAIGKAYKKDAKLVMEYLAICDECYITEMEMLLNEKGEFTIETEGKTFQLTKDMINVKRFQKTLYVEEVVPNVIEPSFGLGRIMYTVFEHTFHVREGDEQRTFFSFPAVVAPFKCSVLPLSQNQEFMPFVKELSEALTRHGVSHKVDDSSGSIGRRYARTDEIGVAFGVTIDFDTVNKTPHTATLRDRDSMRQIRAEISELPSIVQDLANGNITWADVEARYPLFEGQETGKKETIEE
The experiment in a line: Limited proteolysis analysis (trypsin, SDS-PAGE). To be noted: trypsin at different concentrations, 1 h at 37 °C, versus unbound GlyRS.

Data set [3] has as its target T1, GlyRS. Kind of data set: Enzyme inhibition assay (ATP consumption assay). It counts as biochemical. Conditions: for IC50: ATP consumption assay, mean ± SD. On the procedure:
The ATP consumption assay was utilized to assess the enzymatic inhibitory activity of the compounds. The 30 μL reaction mixture consisted of 1 μM GlyRS, 25 μM ATP, 50 μM L-Glycine, 30 mM HEPES pH 7.5, 150 mM NaCl, 30 mM KCl, 40 mM MgCl2, and 0.1% bovine serum albumin (BSA), along with the corresponding concentrations of each compound. The reaction mixture was incubated at room temperature for 15 min. After incubation, 10 μL of the reaction reagent was transferred to a 384-well microplate, and the GlyRS enzyme activity was detected by adding 10 μL of the ATP Assay Kit (#S0026, Beyotime, Shanghai, China). Luminescence measurements were performed using a Synergy HTX multimode microplate Reader (BioTek Inc., Winooski, VT, USA). […]

For data set [4], the target named is T1, GlyRS. Kind of data set: Bio-layer interferometry (BLI) binding assay. To be noted: for Kdis / Kon: immobilized GlyRS. The method, then: Binding experiments on the GlyRS proteins with various molecules were conducted using an Octet R8 system (ForteBio, Fremont, CA, USA). Purified His-tagged GlyRS proteins (500 μg/mL) were captured using Ni-NTA biosensors (ForteBio, Fremont, CA, USA), resulting in a saturation response of 4–5 nm after 300 s. Subsequently, the biosensors were immersed in diluted molecules (0.625–20 μM in assay buffer) for 120 s to measure the association signal, followed by transfer into Octet buffer to measure the dissociation signal for 100 s. Reference wells containing buffer instead of the tested compounds were included to correct for baseline shifts. A parallel set of Ni-NTA sensors immersed only in buffer served as negative reference controls to correct for nonspecific binding of the compounds to the biosensor surface. The signals were analyzed by a double reference subtraction protocol to deduce nonspecific and background signals and signal drifts caused by biosensor variability. All assays were performed by a standard protocol in 96-well black plates with a total volume of 200 μL/well at 30 °C. The generated data were analyzed using the Octet® Analysis Studio 12.2.2.26 for correction and curve fitting.

Data set [5] concerns the target T1, GlyRS. The experiment in a line: Fluorescence-based thermal shift assay (TSA). It is filed as binding. Conditions: shift between Tm of GlyRS with and without compound. The method, then: Thermal shift assays were conducted using a StepOnePlus 7 Flex Real-Time Cycler (Applied Biosystems, Waltham, MA, USA). The Protein Thermal Shift™ Kit dye from Thermo Fisher Scientific was employed to monitor the thermal stability of the protein by binding to its exposed hydrophobic regions. In each well of a 96-well Optical Reaction Plate (Applied Biosystems), a solution containing 14 μL of protein thermal shift buffer, 2 μL of diluted thermal shift dye (8×), 2 μL small molecule solution at 1 mM, and 2 μL of protein at 1 mg/mL was added. The 96-well polymerase chain reaction plates were then placed in the Life Technologies system and incubated at 25 °C for 10 min. Subsequently, the samples were gradually heated from 25 °C to 95 °C at a rate of 1 °C/min. During the thermal denaturation of the protein, the fluorescence signal of SYPRO orange at 490/530 nm excitation/emission wavelengths was recorded by the instrument at 30 s intervals. The fluorescence signal was continuously monitored and plotted against the temperature, with the midpoint of the protein unfolding transition defined as the melting temperature (Tm). To ensure accuracy, triplicate experiments were performed. The ΔTm represents the shift in Tm value between the GlyRS treated with compounds and the blank control.

A short description of data set [6]: in vitro. It counts as cell-based. To be noted: human. On the procedure:
We then evaluated the antiviral effects of Lycobetaine and Scutellarein. To determine the optimal concentration of the small molecules, we used the CCK-8 assay to evaluate cell viability and estimate the CC50 value of the two drugs in A549 cells. In this experiment, the cells were exposed to varying concentrations of Lycobetaine and Scutellarein, and the CCK-8 reagent was added 24 h after drug treatment.

Setting [7] is: 1 μM GlyRS at 20 μM compounds, average of two independent experiments.
Where [8] appears, read: BLI, immobilized His-tagged GlyRS, mean ± SD, three repeats, read-out: KD.

For `O=c1cc(-c2ccc(O)cc2)oc2cc(O)c(O)c(O)c12` [Scutellarein], the “viral infection rate / viral titer” value in data set [1] is on record as “effectively reduced the viral infection rate”. For the same molecule, the “protein conformation change of GlyRS (distribution of proteolyzed fragments)” value in data set [2] is reported as “did not show significant differences compared to unbounded GlyRS”. In data set [3] (setting [7]), the “Relative Enzyme Activity” value stood at 27.3%. In addition, the IC50 in data set [3] was 2.22 ± 0.19 µM. In data set [4] (BLI), the Kdis is listed as 1.09 ± 0.11 (1/s) × 10^−2 and the Kon was 3.96 ± 1.05 (1/MS) × 10^3. The Kd in data set [4] (BLI, mean ± SD, three repeats (Table 2), read-out: KD) amounted to 2.88 ± 0.83 µM. In data set [5], the “△Tm” value is −5.3 °C. Besides, the CC50 at 24 h in data set [6] was determined as 29.4 ± 0.76 µM.
Consider `Cc1c(OCC(F)(F)F)ccnc1C[S+]([O-])c1nc2ccccc2[nH]1` (centres unmarked) [Lansoprazole, reference compound], for which the “Relative Enzyme Activity” value in data set [3] (setting [7]) is 72.3%. For the same molecule, in data set [4] (BLI), the Kdis was 9.25 ± 3.64 (1/s) × 10^−2 and the Kon is recorded as 7.23 ± 2.14 (1/MS) × 10^3. In data set [4] (setting [8]), the Kd was 12.5 ± 1.63 µM. For the same molecule, in data set [5], the “△Tm” value is −5.03 °C.
Regarding `C[C@@H]1C[C@H]2[C@@H]3CCC4=CC(=O)C=C[C@]4(C)[C@@]3(Cl)[C@@H](O)C[C@]2(C)[C@@]1(OC(=O)c1ccco1)C(=O)CCl` [Mometasone furoate, reference compound], the “Relative Enzyme Activity” value in data set [3] (setting [7]) is recorded as 91.2%. Further, the Kon in data set [4] (BLI) is 108.8 ± 67.42 (1/MS) × 10^3. Further, the Kd in data set [4] (setting [8]) stood at 1.82 ± 0.36 µM. The “△Tm” value in data set [5] is −11.58 °C.
With `Oc1c(I)cc(I)c2cccnc12` [Iodoquinol, reference compound], in data set [3] (Figure 5K, bars A-J correspond to the compounds of panels A-J), the Relative Enzyme Activity is 72.0%. For the same molecule, in data set [4] (BLI), the Kdis was 2.23 ± 0.49 (1/s) × 10^−2 and the Kon is 3.10 ± 0.51 (1/MS) × 10^3. In addition, the Kd in data set [4] (setting [8]) was 7.14 ± 0.41 µM. In addition, the “△Tm” value in data set [5] is −11.97 °C.
With `CC(=O)N[C@@H](C)C(=O)O` [N-Acetyl-L-alanine], the “Relative Enzyme Activity” value in data set [3] (setting [7]) is given as 88.1%. Also, in data set [4] (BLI), the Kdis is given as 560 ± 194 (1/s) × 10^−2 and the Kon is 396.20 ± 85.48 (1/MS) × 10^3. Also, in data set [4] (setting [8]), the Kd worked out at 24.9 ± 4.33 µM. Besides, the “△Tm” value in data set [5] is 5.96 °C.
The corresponding values for `COC(=O)C1=C(C)NC(C)=C(C(=O)OCC(C)C)C1c1ccccc1[N+](=O)[O-]` (centres unmarked) [Nisoldipine, reference compound] are 67.3%, 400 ± 94.49 (1/s) × 10^−2, 86.16 ± 27.50 (1/MS) × 10^3, 47.7 ± 7.18 µM and −8.96 °C.
In the case of `Cc1ccc(S(=O)(=O)NCl)cc1` [Chloramine-T], in data set [3] (setting [7]), the “Relative Enzyme Activity” value is given as 86.9%. Further, the Kd in data set [4] was found to be 15.1 ± 1.8 µM. In data set [4] (BLI), the Kdis is 78.19 ± 17.95 (1/s) × 10^−2 and the Kon is 52.28 ± 13.31 (1/MS) × 10^3. Moreover, the “△Tm” value in data set [5] was −5.13 °C.
Regarding `COC[C@H]1C[C@@H](c2nc(-c3ccc4c(c3)COc3cc5c(ccc6nc([C@@H]7CC[C@H](C)N7C(=O)[C@@H](NC(=O)OC)C(C)C)[nH]c65)cc3-4)c[nH]2)N(C(=O)[C@H](NC(=O)OC)c2ccccc2)C1` [Velpatasvir, reference compound], the “Relative Enzyme Activity” value in data set [3] (setting [7]) is on record as 78.5%. Also, in data set [4] (BLI), the Kdis is reported as 18.46 ± 0.98 (1/s) × 10^−2 and the Kon is reported as 15.80 ± 0.71 (1/MS) × 10^3. Moreover, the Kd in data set [4] (setting [8]) turned out to be 11.7 ± 1.13 µM. In addition, the “△Tm” value in data set [5] is −5.4 °C.
Regarding `CC(C)c1cc2c(c(O)c1O)[C@@]1(C(=O)O)CCCC(C)(C)[C@@H]1CC2` [Carnosic acid], in data set [3] (setting [7]), the “Relative Enzyme Activity” value worked out at 75.4%. Further, the affinity in data set [4], expressed as Kd, was 14.5 ± 0.19 µM. For the same molecule, in data set [4] (BLI), the Kdis was 1.12 ± 0.17 (1/s) × 10^−2 and the Kon was 1.13 ± 0.26 (1/MS) × 10^3. Further, the “△Tm” value in data set [5] was −5.9 °C.
On to `Oc1cc2c3c(c1)c1cc4c(cc1c[n+]3CC2)OCO4` [Lycobetaine], for which the “viral infection rate / viral titer” value in data set [1] is given as “effectively reduced the viral infection rate”. Moreover, in data set [2], the “protein conformation change of GlyRS (distribution of proteolyzed fragments)” value is reported as “alters the protein conformation of GlyRS”. In data set [3] (setting [7]), the “Relative Enzyme Activity” value turned out to be 8.0%. In data set [3], the IC50 was found to be 0.11 ± 0.05 µM. The Kdis in data set [4] (BLI) was 39.73 ± 11.18 (1/s) × 10^−2. Besides, the Kd in data set [4] (setting [8]) worked out at 43.5 ± 16.4 µM. Besides, the “△Tm” value in data set [5] was −13.01 °C. Besides, the CC50 at 24 h in data set [6] came out at 16 ± 0.58 µM.
